Data from patent US6232305A, “Substituted amino bicyclic-β-lactam penam and cepham derivatives as cysteine protease inhibitors” (Naeja Pharmaceutical Inc., priority 1998, dated 2001).

Key:
Cathepsin B = Cathepsin B (Rattus norvegicus, UniProt P00787); test: In vitro inhibition of cathepsin B; format: biochemical; settings: r rat cathepsin B; substrate N-CBZ-Phe-Arg-AMC; pH 5.1; 10 min incubation at room temperature
Protocol: TEST EXAMPLE 1 In Vitro Assay Procedure for Cathepsin B The compounds of formula I were tested for inhibition of cathepsin B using the known method (A. J. Barret et al., Biochem. J. 1982, 201, 189-198). […] After 10 min of incubation at room temperature, a 20 μl of 5 mM substrate (N-CBZ-Phe-Arg-AMC, dissolved in DMSO) was added to initiate reaction. Reading is followed up for 10 min at the fluoroscan reader (excitation at 380 nm emission at 460 nm).

Cathepsin L = Cathepsin L (Rattus norvegicus, UniProt P07154); test: In vitro inhibition of cathepsin L; format: biochemical; settings: r rat cathepsin L; substrate N-CBZ-Phe-Arg-AMC; pH 5.0; 10 min incubation at room temperature
Protocol: TEST EXAMPLE 2 In Vitro Assay Procedure for Cathepsin L […] After 10 min of incubation at room temperature, a 20 μl of 1 mM substrate (N-CBZ-Phe-Arg-AMC, dissolved in DMSO) was added to initiate reaction. Reading is followed up for 10 min at the fluoroscan reader (excitation at 380 nm emission at 460 nm).

Chain of Cathepsin B (P00787 80-339): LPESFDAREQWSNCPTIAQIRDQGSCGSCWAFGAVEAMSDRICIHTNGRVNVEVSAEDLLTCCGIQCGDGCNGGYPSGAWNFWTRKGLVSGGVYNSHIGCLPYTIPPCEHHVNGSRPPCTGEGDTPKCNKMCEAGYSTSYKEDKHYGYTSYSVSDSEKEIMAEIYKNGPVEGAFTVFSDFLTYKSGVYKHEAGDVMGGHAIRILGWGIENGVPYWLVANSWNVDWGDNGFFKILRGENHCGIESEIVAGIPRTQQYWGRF
Chain of Cathepsin L (P07154 114-334): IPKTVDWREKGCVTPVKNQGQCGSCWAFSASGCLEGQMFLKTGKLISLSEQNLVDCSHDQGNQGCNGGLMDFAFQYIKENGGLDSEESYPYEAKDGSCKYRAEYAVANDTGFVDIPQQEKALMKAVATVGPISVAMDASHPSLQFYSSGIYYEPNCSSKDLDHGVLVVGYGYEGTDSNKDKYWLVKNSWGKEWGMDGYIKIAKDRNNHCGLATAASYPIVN

SMILES	IC50 (Cathepsin B)	IC50 (Cathepsin L)
O=C(N[C@@H](Cc1ccccc1)C(=O)N[C@@H]1C(=O)N2CCCS(=O)(=O)[C@H]12)OCc1ccccc1 [Example 16, (6R,7R)-7-(2S-2-benzyloxycarbonylamino-2-phenylmethyl-acetamido)-5,5-dioxo-5-thia-1-azabicyclo [4,2,0] octan-8-one]	> 50 µM	–
O=C(N[C@@H](Cc1ccccc1)C(=O)N[C@@H]1C(=O)N2CCS(=O)(=O)[C@H]12)OCc1ccccc1 [Example 3, (5R,6R)-6-(2S-2-benzyloxycarbonylamino-2-phenylmethyl-acetamido)-4,4-dioxo-4-thia-1-azabicyclo [3,2,0] heptan-7-one]	6.01 µM	9.6 nM
O=C(N[C@H](Cc1ccccc1)C(=O)N[C@@H]1C(=O)N2CCS(=O)(=O)[C@@H]12)OCc1ccccc1 [Example 20, (5S,6R)-6{2R-2-benzyloxycarbonylamino-2-phenylmethyl-acetamido}-4,4-dioxo4-thia-1-azabicyclo[3,2,0] heptan-7-one]	> 50 µM	44 nM
O=C(CCc1ccccc1)N[C@@H](Cc1cccs1)C(=O)N[C@@H]1C(=O)N2CCS[C@@H]12 [Example 8, (5S,6R)-6-{2S-2-(3-phenylpropionoyl)amino-2-(2-thienyl)methyl-acetamido}-4-thia-1-azabicyclo [3,2,0] heptan-7-one]	> 50 µM	11600 nM
CC1(C)[C@H](C(=O)O)N2C(=O)[C@@H](NC(=O)[C@H](Cc3ccccc3)NC(=O)CCc3ccccc3)[C@H]2S1(=O)=O [Example 19, (2S,5R,6R)-6-{2S-2-(3-phenylpropionoyl)amino-2-phenylmethyl-acetamido}-3,3-dimethyl-7-oxo-4,4-dioxo-4-thia-1-azabicyclo [3,2,0] heptane-2-carboxylic acid]	> 50 µM	6770 nM
O=C(CCc1ccccc1)N[C@@H](Cc1ccc2ccccc2c1)C(=O)N[C@@H]1C(=O)N2CCS[C@@H]12 [Example 6, (5S,6R)-6-{2S-2-(3-phenylpropionoyl)amino-2-(2-naphthyl)methyl-acetamido}-4-thia-1-azabicyclo [3,2,0] heptan-7-one]	10.5 µM	430 nM
O=C(N[C@@H](Cc1cccnc1)C(=O)N[C@@H]1C(=O)N2CCS[C@@H]12)OCc1ccccc1 [Example 12, (5S,6R)-6-{2S-2-benzyloxycarbonylamino-2-(3-pyridyl)methyl-acetamido}-4-thia-1-azabicyclo [3,2,0] heptan-7-one]	> 50 µM	11700 nM
O=C(CCc1ccccc1)N[C@@H](Cc1cccc(F)c1)C(=O)N[C@@H]1C(=O)N2CCS(=O)(=O)[C@@H]12 [Example 11, (5S,6R)-6-{2S-2-(3-phenylpropionoyl)amino-2-(3-fluorophenyl)methyl-acetamido}-4,4-dioxo-4-thia-1-azabicyclo [3,2,0] heptan-7-one]	1 µM	3.3 nM
O=C(N[C@@H](Cc1cccnc1)C(=O)N[C@@H]1C(=O)N2CCS(=O)(=O)[C@@H]12)OCc1ccccc1 [Example 13, (5S,6R)-6-{2S-2-benzyloxycarbonylamino-2-(3-pyridyl)methyl-acetamido}-4,4-dioxo-4-thia-1-azabicyclo [3,2,0] heptan-7-one]	1.3 µM	1.7 nM
O=C(CCc1ccccc1)N[C@@H](CC1CCCCC1)C(=O)N[C@@H]1C(=O)N2CCS(=O)(=O)[C@@H]12 [Example 5, (5S,6R)-6-{2S-2-(3-phenylpropionoyl)amino-2-cyclohexylmethyl-acetamido}-4,4-dioxo-4-thia-1-azabicyclo [3,2,0] heptan-7-one]	0.43 µM	0.7 nM
COC(=O)[C@@H]1N2C(=O)[C@@H](NC(=O)[C@H](Cc3ccccc3)NC(=O)OCc3ccccc3)[C@H]2S(=O)(=O)C1(C)C [Example 18, Methyl (2S,5R,6R)-6-(2S-2-benzyloxycarbonylamino-2-phenylmethyl-acetamido)-3,3-dimethyl-7-oxo-4,4-dioxo4-thia-1-azabicyclo[3,2,0]heptane-2-carboxylate]	28.2 µM	1740 nM
O=C(N[C@@H](Cc1ccccc1)C(=O)N[C@@H]1C(=O)N2CCCS(=O)(=O)[C@@H]12)OCc1ccccc1 [Example 15, (6S,7R)-7-(2S-2-benzyloxycarbonylamino-2-phenylmethyl-acetamido)-5,5-dioxo-5-thia-1-azabicyclo [4,2,0] octan-8-one]	> 50 µM	2120 nM
O=C(N[C@@H](Cc1ccccc1)C(=O)N[C@@H]1C(=O)N2CC(O)CS[C@@H]12)OCc1ccccc1 (stereo partly drawn) [Example 17, (6S,7R)-7-(2S-2-benzyloxycarbonylamino-2-phenylmethyl-acetamido)-3-hydroxy-5-thia-1-azabicyclo [4,2,0] octan-8-one]	> 50 µM	2190 nM
O=C(N[C@@H](Cc1ccccc1)C(=O)N[C@@H]1C(=O)N2CCS[C@@H]12)OCc1ccccc1 [Example 1, (5S,6R)-6-(2S-2-benzyloxycarbonylamino-2-phenylmethyl-acetamido)-4-thia-1-azabicyclo [3,2,0] heptan-7-one]	> 50 µM	6680 nM
O=C(CCc1ccccc1)N[C@@H](Cc1cccc(F)c1)C(=O)N[C@@H]1C(=O)N2CCS[C@@H]12 [Example 10, (5S,6R)-6-{2S-2-(3-phenylpropionoyl)amino-2-(3-fluorophenyl)methyl-acetamido}4-4-thia-1-azabicyclo [3,2,0] heptan-7-one]	> 50 µM	11300 nM
O=C(N[C@@H](Cc1ccccc1)C(=O)N[C@@H]1C(=O)N2CCCS[C@@H]12)OCc1ccccc1 [Example 14, (6S,7R)-7-(2S-2-benzyloxycarbonylamino-2-phenylmethyl-acetamido)-5-thia-1-azabicyclo [4,2,0] octan-8-one]	> 50 µM	> 50000 nM
O=C(CCc1ccccc1)N[C@@H](CC1CCCCC1)C(=O)N[C@@H]1C(=O)N2CCS[C@@H]12 [Example 4, (5S,6R)-6-{2S-2-(3-phenylpropionoyl)amino-2-cyclohexylmethyl-acetamido}-4-thia-1-azabicyclo [3,2,0] heptan-7-one]	> 50 µM	> 50000 nM
O=C(N[C@@H](Cc1ccccc1)C(=O)N[C@@H]1C(=O)N2CCS(=O)(=O)[C@@H]12)OCc1ccccc1 [Example 2, (5S,6R)-6-(2S-2-benzyloxycarbonylamino-2-phenylmethyl-acetamido)-4,4-dioxo-4-thia-1-azabicyclo [3,2,0] heptan-7-one]	0.35 µM	1.4 nM
O=C(CCc1ccccc1)N[C@@H](Cc1ccc2ccccc2c1)C(=O)N[C@@H]1C(=O)N2CCS(=O)(=O)[C@@H]12 [Example 7, (5S,6R)-6-{2S-2-(3-phenylpropionoyl)amino-2-(2-naphthyl)methyl-acetamido}-4,4-dioxo-4-thia-1-azabicyclo [3,2,0] heptan-7-one]	0.39 µM	3 nM
O=C(CCc1ccccc1)N[C@@H](Cc1cccs1)C(=O)N[C@@H]1C(=O)N2CCS(=O)(=O)[C@@H]12 [Example 9, (5S,6R)-6-{2S-2-(3-phenylpropionoyl)amino-2-(2-thienyl)methyl-acetamido}-4,4-dioxo-4-thia-1-azabicyclo [3,2,0] heptan-7-one]	0.43 µM	3 nM
O=C(N[C@@H](Cc1ccccc1)C(=O)N[C@@H]1C(=O)N2CC[S+]([O-])[C@@H]12)OCc1ccccc1 (stereo partly drawn) [Example 21, (5S,6R)-6-{2S-2-benzyloxycarbonylamino-2-phenylmethyl-acetamido}-4-oxo-4-thia-1-azabicyclo [3,2,0] heptan-7-one]	16.4 µM	68 nM
